The target of experiment [1] is T1, human FLT3 protein (FLT3 (WT)) (Homo sapiens, UniProt P36888).
T1 construct: human FLT3 protein (intracellular region, 564 to 993 aa); GST; purchased Carna Biosciences; host or cells: baculovirus expression system
T1 sequence (P36888 564-993): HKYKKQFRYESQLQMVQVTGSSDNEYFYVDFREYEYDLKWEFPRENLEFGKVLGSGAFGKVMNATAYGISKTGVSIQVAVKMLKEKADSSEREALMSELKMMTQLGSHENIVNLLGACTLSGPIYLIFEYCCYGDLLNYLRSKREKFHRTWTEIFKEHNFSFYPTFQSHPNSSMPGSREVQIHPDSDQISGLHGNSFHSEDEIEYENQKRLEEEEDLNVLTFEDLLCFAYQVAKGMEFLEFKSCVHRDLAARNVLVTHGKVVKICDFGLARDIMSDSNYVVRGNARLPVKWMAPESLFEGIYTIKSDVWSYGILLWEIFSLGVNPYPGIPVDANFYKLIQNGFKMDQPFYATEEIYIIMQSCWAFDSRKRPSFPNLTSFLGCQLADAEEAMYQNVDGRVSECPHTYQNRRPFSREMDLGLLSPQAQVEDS
In words: FLT3 inhibition test (FLT3 enzyme inhibition, time-resolved fluorescence of substrate peptide phosphorylation). The class given is biochemical. Put shortly:
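Wild-type human FLT3 (1.2 μg) pre-incubated with compound 15 min at 25° C in 100 mM HEPES pH 7.5, 10 mM MgCl2, 25 mM NaCl, 1 mM DTT. Reaction started with substrate peptide and ATP (final 50 μM), run 30 min at 25° C; phosphorylation read by time-resolved fluorescence.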

Experiment [2] deals with MV4-11 cells. Description: Leukemia cell proliferation inhibition test (ATPlite), MV4-11. The class given is cell-based. To be noted: Homo sapiens, read-out: MV4-11 cell proliferation inhibition effect. Put shortly: (§1)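 72 h proliferation, 37° C/5% CO2; 10,000 cells/well, RPMI/10% FBS; ATPlite luminescence (RLU); 0.1% DMSO taken as 0% inhibition; GI50 via sigmoid fit, n=2.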
For orientation: ATP-based viability assays read luminescence as a measure of living cells.

For experiment [3], the system named is Molm-13 cells. In words: Leukemia cell proliferation inhibition test (ATPlite), Molm-13. Format: cell-based. The conditions noted are these: Homo sapiens, read-out: MOLM13 cell proliferation inhibition effect. In a few lines: as §1
Where [4] appears, read: GST-fused human FLT3 (564 to 993 aa), ATP 50 μM, read-out: FLT3 (WT) enzyme inhibition activity.
The mark [5] stands for this setting: MV4-11, 72 h, MV4-11, 72 hours culture, ATPlite, GI50 per method.
Setting [6] is: MOLM-13, 72 h, Molm-13, 72 hours culture, ATPlite, GI50 per method.
Where [7] appears, read: FLT3 (WT), read-out: FLT3 (WT) enzyme inhibition activity.

Read-outs that look alike come from different tables or passages of the source.

On to `CCCNc1nc(Nc2cccc(F)c2)ncc1C#Cc1cc(NC(=O)[C@H](C)N(C)C(=O)/C=C/CN(C)C)ccc1F` [Compound 8-7], for which the results for the IC50 in experiment [1] (setting [4]), in experiment [2] (setting [5]) and in experiment [3] (setting [6]) were less than 10 nM, less than 10 nM and 10 to 100 nM, respectively.

With `CCCNc1nc(Nc2ccc3ncsc3c2)ncc1C#CCCCNC(=O)[C@H](C)N(C)C(=O)/C=C/CN(C)C` [Compound 22-6, (S,E)-N-(1-((5-(2-(Benzo[d]thiazol-6-ylamino)-4-(propylamino)pyrimidin-5-yl)-4-pentyn-1-yl)amino)-1-oxopropan-2-yl)-4-(dimethylamino)-N-methyl-2-butenamide], the IC50 in experiment [1] (setting [7]) is less than 10 nM; in experiment [2] (MV4-11, MV4-11 cell) it was less than 10 nM; in experiment [3] (MOLM-13, MOLM13 cell), less than 10 nM.

Consider `CCCNc1nc(Nc2ccc3occc3c2)ncc1C#CCCCNC(=O)[C@H](C)N(C)C(=O)/C=C/CN(C)C` [Compound 21-34], for which the IC50 was less than 10 nM in experiment [1] (setting [7]); less than 10 nM in experiment [2] (MV4-11, MV4-11 cell); less than 10 nM in experiment [3] (MOLM-13, MOLM13 cell).

For `CCCNc1nc(Nc2ccccc2)ncc1C#CCCCNC(=O)[C@H](C)N(C)C(=O)/C=C/CN(C)C` [Compound 12-1, (S,E)-4-(dimethylamino)-N-methyl-N-(1-oxo-1-((5-(2-(phenylamino)-4-(propylamino)pyrimidin-5-yl)-4-pentyn-1-yl)amino)propan-2-yl)-2-butenamide], the IC50 in experiment [1] (setting [4]), in experiment [2] (setting [5]) and in experiment [3] (setting [6]) was less than 10 nM each time.

With `C=CC(=O)NCC(=O)NCCCNC(=O)c1cnc(Nc2ccc3cnccc3c2)nc1NCCC` [Compound 6-5], the values for the IC50 in experiment [1] (setting [4]), in experiment [2] (setting [5]) and in experiment [3] (setting [6]) were less than 10 nM, 10 to 100 nM and 10 to 100 nM, respectively.

As for `CCCNc1nc(Nc2ccc3cn[nH]c3c2)ncc1C#CCCCNC(=O)[C@H](C)N(C)C(=O)/C=C/CN(C)C` [Compound 21-53, (S,E)-N-(1-((5-(2-((1H-indazol-6-yl)amino)-4-(propylamino)pyrimidin-5-yl)-4-pentyn-1-yl)amino)-1-oxopropan-2-yl)-4-(dimethylamino)-N-methyl-2-butenamide], the IC50 was less than 10 nM in experiment [1] (setting [7]); less than 10 nM in experiment [2] (MV4-11, MV4-11 cell); less than 10 nM in experiment [3] (MOLM-13, MOLM13 cell).

On to `COc1nc(Nc2ccc(C#N)cc2)ncc1C#C[C@@H]1CCC[C@H](NC(=O)[C@H](C)N(C)C(=O)/C=C/CN(C)C)C1` [Compound 15-1, (E)-N—((S)-1-(((1S,3R)-3-((2-((4-cyanophenyl)amino)-4-methoxypyrimidin-5-yl)ethynyl)cyclohexyl)amino)-1-oxopropan-2-yl)-4-(dimethylamino)-N-methyl-2-butenamide], for which the IC50 in experiment [1] (setting [4]), in experiment [2] (setting [5]) and in experiment [3] (setting [6]) was less than 10 nM each time.

`C[C@@H](C(=O)NCCCC#Cc1cnc(Nc2cccc(F)n2)nc1NC1CC1)N(C)C(=O)/C=C/CN(C)C` [Compound 9-23]: the IC50 lay within 10 to 100 nM in experiment [1] (setting [4]), 10 to 100 nM in experiment [2] (setting [5]) and 100 to 1000 nM in experiment [3] (setting [6]).

For `CCCNc1nc(Nc2ccc(C#N)cc2)ncc1C#Cc1cccc(NC(=O)[C@H](C)N(C)C(=O)/C=C/CN(C)C)n1` [Compound 8-19], the IC50 is less than 10 nM in experiment [1] (setting [4]), 10 to 100 nM in experiment [2] (setting [5]) and 10 to 100 nM in experiment [3] (setting [6]).

Turning to `CCCNc1nc(Nc2ccc(C(N)=O)cc2)ncc1C#Cc1ccc(NC(=O)CNC(=O)/C=C/CN(C)C)cc1` [Compound 8-4], the values for the IC50 in experiment [1] (setting [4]), in experiment [2] (setting [5]) and in experiment [3] (setting [6]) were less than 10 nM, 10 to 100 nM and 10 to 100 nM, respectively.

As for `CCCNc1nc(Nc2ccc(C(N)=O)cc2)ncc1C(=O)Nc1cccc(NC(=O)[C@H](C)N(C)C(=O)/C=C/CNCCF)c1` [Compound 4-10], the IC50 in experiment [1] (FLT3 (WT) enzyme inhibition activity, GST-fused human FLT3 (564 to 993 aa), ATP 50 μM) was less than 10 nM; in experiment [2] (setting [5]) it was less than 10 nM; in experiment [3] (setting [6]), less than 10 nM.

For `CCCNc1nc(Nc2ccc(C#N)cc2)ncc1C#CCCCNC(=O)[C@@H]1C[C@H](O)CN1C(=O)/C=C/CN(C)C` [Compound 7-69], the IC50 in experiment [1] (setting [4]), in experiment [2] (setting [5]) and in experiment [3] (setting [6]) was less than 10 nM each time.

As to `CCCNc1nc(Nc2ccc3c(OC)n[nH]c3c2)ncc1C#CCCCNC(=O)[C@@H]1CCCN1C(=O)/C=C/CN(C)C` [Compound 22-68], the IC50 was less than 10 nM in experiment [1] (setting [7]); less than 10 nM in experiment [2] (MV4-11, MV4-11 cell); less than 10 nM in experiment [3] (MOLM-13, MOLM13 cell).

In the case of `CCCNc1nc(Nc2ccc(C#N)cc2)ncc1/C=C\CNC(=O)CCNC(=O)/C=C/CN(C)C` [Compound 7-95], the IC50 in experiment [1] (setting [4]) was 10 to 100 nM; in experiment [2] (setting [5]), greater than 1000 nM; in experiment [3] (setting [6]), greater than 1000 nM.

Consider `CCCNc1nc(Nc2cnc3c(cnn3CCOC)c2)ncc1C#CCCCNC(=O)[C@@H]1CCCN1C(=O)/C=C/CN(C)C` [Compound 22-44, (S,E)-1-(4-(Dimethylamino)-2-butenoyl)-N-(5-(2-((1-(2-methoxyethyl)-1H-pyrazolo[3,4-b]pyridin-5-yl)amino)-4-(propylamino)pyrimidin-5-yl)-4-pentyn-1-yl)pyrrolidine-2-carboxamide], for which the IC50 in experiment [1] (setting [7]) was less than 10 nM; in experiment [2] (MV4-11, MV4-11 cell), less than 10 nM; in experiment [3] (MOLM-13, MOLM13 cell), less than 10 nM.

For `COCCCNc1nc(Nc2cccc(F)c2)ncc1C#CCCCNC(=O)[C@H](C)N(C)C(=O)/C=C/CN(C)C` [Compound 10-1, (S,E)-4-(dimethylamino)-N-(1-((5-(2-((3-fluorophenyl)amino)-4-((3-methoxypropyl)amino)pyrimidin-5-yl)-4-pentyn-1-yl)amino)-1-oxopropan-2-yl)-N-methyl-2-butenamide], the IC50 was less than 10 nM in experiment [1] (setting [4]), less than 10 nM in experiment [2] (setting [5]) and 10 to 100 nM in experiment [3] (setting [6]).

For the compound `CCCNc1nc(Nc2ccc(C#N)cc2)ncc1C#CCCCNC(=O)CN(C(=O)/C=C/CN(C)C)C(C)C` [Compound 7-40], the IC50 in experiment [1] (setting [4]), in experiment [2] (setting [5]) and in experiment [3] (setting [6]) was less than 10 nM each time.

As to `CCCNc1nc(Nc2ccc3cnccc3c2)ncc1C(=O)Nc1cccc(NC(=O)[C@H](C)N(C)C(=O)/C=C/CN(C)C)c1` [Compound 6-9, (S,E)-N-(3-(2-(4-(Dimethylamino)-N-methyl-2-butenamido)propanamido)phenyl)-2-(isoquinolin-6-ylamino)-4-(propylamino)pyrimidine-5-carboxamide], the IC50 in experiment [1] (setting [4]), in experiment [2] (setting [5]) and in experiment [3] (setting [6]) was less than 10 nM throughout.

In the case of `CCCNc1nc(Nc2ccc(C(N)=O)cc2)ncc1C(=O)Nc1cccc(NC(CNC(=O)/C=C/CN(C)C)C(F)(F)F)c1` (stereo not drawn) [Compound 3-17], the IC50 in experiment [1] (setting [4]) was less than 10 nM; in experiment [2] (setting [5]) it was 100 to 1000 nM; in experiment [3] (setting [6]), greater than 1000 nM.

`CCCNc1nc(Nc2ccc(C(N)=O)cc2)ncc1C(=O)Nc1cccc(NC(=O)[C@H](C)N(C)C(=O)/C=C/CNC)c1` [Compound 4-2]: the IC50 in experiment [1] (setting [4]), in experiment [2] (setting [5]) and in experiment [3] (setting [6]) was less than 10 nM throughout.

For `C[C@@H](C(=O)NCCCC#Cc1cnc(Nc2ccc(C#N)cc2)nc1NC1CC1)N(C)C(=O)/C=C/CN(C)C` [Compound 10-25], the IC50 in experiment [1] (setting [4]), in experiment [2] (setting [5]) and in experiment [3] (setting [6]) was less than 10 nM throughout.

`C[C@@H](C(=O)NCCCC#Cc1cnc(Nc2cccc(F)c2)nc1NCC1CCOCC1)N(C)C(=O)/C=C/CN(C)C` [Compound 10-7]: the IC50 in experiment [1] (setting [4]), in experiment [2] (setting [5]) and in experiment [3] (setting [6]) was less than 10 nM in each case.

Regarding `CCCNc1nc(NCCc2ccncc2)ncc1C(=O)NCCCNC(=O)CNC(=O)/C=C/CN(C)C` [Compound 2-24], the values for the IC50 in experiment [1] (setting [4]), in experiment [2] (setting [5]) and in experiment [3] (setting [6]) were less than 10 nM, 10 to 100 nM and 10 to 100 nM, respectively.

As to `CCCNc1nc(Nc2ccc3nn(C)cc3c2)ncc1C#CCCCNC(=O)[C@H](C)N(C)C(=O)/C=C/CN(C)C` [Compound 21-7], the IC50 in experiment [1] (setting [4]), in experiment [2] (setting [5]) and in experiment [3] (setting [6]) was less than 10 nM throughout.

Take `C=CC(=O)NCC(=O)Nc1cc(Cl)cc(NC(=O)c2cnc(NCCc3ccncc3)nc2NCCC)c1` [Compound 2-5]: the IC50 in experiment [1] (setting [4]) was less than 10 nM; in experiment [2] (setting [5]) it was 10 to 100 nM; in experiment [3] (setting [6]), 10 to 100 nM.

On to `C[C@@H](C(=O)NCCCC#Cc1cnc(Nc2ccc(F)nc2)nc1N1CCCC1)N(C)C(=O)/C=C/CN(C)C` [Compound 11-8], for which the IC50 in experiment [1] (setting [4]) is less than 10 nM; in experiment [2] (setting [5]) it was 10 to 100 nM; in experiment [3] (setting [6]) it was 10 to 100 nM.

`CCCNc1nc(Nc2ccc3c(c2)c(OC)nn3C)ncc1C#CCCCNC(=O)[C@H](C)N(C)C(=O)/C=C/CN(C)C` [Compound 22-25]: the IC50 in experiment [1] (setting [7]) is less than 10 nM; in experiment [2] (MV4-11, MV4-11 cell), less than 10 nM; in experiment [3] (MOLM-13, MOLM13 cell), less than 10 nM.

For the origin of these results see US9145415B2, “Nitrogen-containing heterocyclic compound or salt thereof” (FUJIFILM Corporation, priority 2012, dated 2015).
